Tests used:
Assay type in all cases: cell-based
B. cereus [1] = assay: Broth microdilution MIC/MBC; settings: for MBC: 99.9% killing; for MIC: 24 h at 37° C.
Description: (§1) Broth microdilution tests were performed according to NCCLS guidelines. Serial two-fold dilutions of each imidazolium salt (from an original working solution which had been 0.22 μm sterile filtered) in Mueller-Hinton Broth (MHB) (100 μl) were prepared in 96-well micro-titre plates over the range 0.0000625-1% w/v. The inoculum to be tested was prepared by adjusting the turbidity of an actively overnight growing broth culture in MHB to an optical density at 550 nm equivalent to 1×10^8 CFU/ml. The suspension was further diluted to provide a final inoculum density of 2×10^5 CFU/ml in MHB as verified by total viable count. The inoculum to be tested (100 μl, 2×10^5 CFU ml^−1) was added to each well of the microdilution trays which were incubated aerobically for 24 h at 37° C. Positive and negative growth controls were included in every assay (6 replicates). After determining the MICs, minimum bactericidal concentrations (MBCs) were determined by spreading 20 μl of suspension from wells showing no growth onto MHA plates, which were then incubated for 24 h and examined for 99.9% killing.

C. tropicalis NCTC 7393 [2] = assay: Broth microdilution MIC/MBC; settings: for MBC: C. tropicalis NCTC 7393, 99.9% killing; for MIC: C. tropicalis NCTC 7393, 24 h at 37° C.
Description: as §1

E-MRSA 15 [3] = assay: Broth microdilution MIC/MBC; settings: for MBC: E-MRSA 15, 99.9% killing; for MIC: E-MRSA 15, 24 h at 37° C.
Description: as §1

E. coli NCTC 8196 [4] = assay: Broth microdilution MIC/MBC; settings: for MBC: E. coli NCTC 8196, 99.9% killing; for MIC: E. coli NCTC 8196, 24 h at 37° C.
Description: as §1

K. aerogenes NCTC 7427 [5] = assay: Broth microdilution MIC/MBC; settings: for MBC: K. aerogenes NCTC 7427, 99.9% killing; for MIC: K. aerogenes NCTC 7427, 24 h at 37° C.
Description: as §1

P. aeruginosa PA01 [6] = assay: Broth microdilution MIC/MBC; settings: for MBC: P. aeruginosa PA01, 99.9% killing; for MIC: P. aeruginosa PA01, 24 h at 37° C., read-out: MIC
Description: as §1

P. mirabilis NCTC 12442 [7] = assay: Broth microdilution MIC/MBC; settings: for MBC: P. mirabilis NCTC 12442, 99.9% killing; for MIC: P. mirabilis NCTC 12442, 24 h at 37° C.
Description: as §1

S. aureus ATCC 29213 = assay: Broth microdilution MIC/MBC; settings: for MBC: S. aureus ATCC 29213, 99.9% killing; for MIC: S. aureus ATCC 29213, 24 h at 37° C.
Description: as §1

[8] = tested on: S. epidermidis ATCC 12228; assay: Broth microdilution MIC/MBC; settings: for MBC: S. epidermidis ATCC 12228, 99.9% killing; for MIC: S. epidermidis ATCC 12228, 24 h at 37° C.
Description: as §1

[9] = tested on: S. epidermidis ATCC 35984; assay: Broth microdilution MIC/MBC; settings: for MBC: S. epidermidis ATCC 35984, 99.9% killing; for MIC: S. epidermidis ATCC 35984, 24 h at 37° C.
Description: as §1

S. aureus PIII [10] = assay: Broth microdilution MIC
Description: as §1

B. cereus [11] = assay: Biofilm assay (Calgary Biofilm Device), MBEC; settings: B. cereus 24 h biofilm, 24 h challenge
Description: (§2) Biofilms of each test organism were grown in the Calgary Biofilm Device (commercially available as the MBEC Assay™ for Physiology & Genetics, Innovotech Inc., Edmonton, Alberta, Canada). The device, a micro-titre plated based assay, consists of two parts; a microtitre plate containing the inoculated test medium and a polystyrene lid with 96 identical pegs on which the microbial biofilm forms under gyrorotary incubation. The biofilm assay was conducted according to the MBEC™ assay protocol as supplied by the manufacturer, with slight modifications. Inocula of each test organism were prepared in MHB as described above and adjusted to provide a final inoculum density of ˜10^7 CFU ml^−1 (as confirmed by viable count). 150 μl of the inoculated media was transferred to each well of the 96-well microtitre plate and the assay plate lid, bearing 96 pegs was placed into the microtitre plate. The MBEC assay plates were placed in a gyrorotary incubator (37° C., 95% relative humidity) for 24 h to permit growth and comparison of 24 h biofilms of each test strain. Positive and negative growth controls were included in each plate (6 replicates). Initial and 24 h planktonic viable counts were measured, as were 24 h biofilm counts, expressed as CFU peg^−1, according to manufacturers instructions. After 24 h, the peg lid of the MBEC assay plate was gently rinsed three times. After rinsing, the peg lid of the MBEC assay was transferred to a ‘challenge’ plate. Serial dilutions of each imidazolium salt were prepared in 200 μl of MHB containing various concentrations of IL in each well. Positive growth control and sterility control were included in each assay plate. […] Biofilms were dislodged into recovery media by sonication for 5 minutes and the peg lid discarded. The recovery plate is incubated overnight and visually checked after 24 h for turbidity. In addition, optical density measurements for each plate were recorded at 550 nm. Clear wells were taken as evidence of biofilm eradication and the MBEC value was assigned as the lowest concentration at which no growth was observed after 24 h incubation. Plates were incubated for a further 24 h to confirm biofilm eradication concentrations.

C. tropicalis NCTC 7393 [12] = assay: Biofilm assay (Calgary Biofilm Device), MBEC; settings: C. tropicalis NCTC 7393 24 h biofilm, 24 h challenge
Description: as §2

E-MRSA 15 [13] = assay: Biofilm assay (Calgary Biofilm Device), MBEC; settings: E-MRSA 15 24 h biofilm, 24 h challenge
Description: as §2

E. coli NCTC 8196 [14] = assay: Biofilm assay (Calgary Biofilm Device), MBEC; settings: E. coli NCTC 8196 24 h biofilm, 24 h challenge
Description: as §2

K. aerogenes NCTC 7427 [15] = assay: Biofilm assay (Calgary Biofilm Device), MBEC; settings: K. aerogenes NCTC 7427 24 h biofilm, 24 h challenge
Description: as §2

P. aeruginosa PA01 [16] = assay: Biofilm assay (Calgary Biofilm Device), MBEC; settings: P. aeruginosa PA01 24 h biofilm, 24 h challenge
Description: as §2

P. mirabilis NCTC 12442 [17] = assay: Biofilm assay (Calgary Biofilm Device), MBEC; settings: P. mirabilis NCTC 12442 24 h biofilm, 24 h challenge
Description: as §2

S. aureus PIII [18] = assay: Biofilm assay (Calgary Biofilm Device), MBEC; settings: S. aureus PIII 24 h biofilm, 24 h challenge
Description: as §2

[19] = tested on: S. epidermidis ATCC 35984; assay: Biofilm assay (Calgary Biofilm Device), MBEC; settings: S. epidermidis ATCC 35984 24 h biofilm, 24 h challenge
Description: as §2

Compound | MBC (B. cereus [1]) [µM] | MIC (B. cereus [1]) [µM] | MBC (C. tropicalis NCTC 7393 [2]) [µM] | MIC (C. tropicalis NCTC 7393 [2]) [µM] | MIC (E-MRSA 15 [3]) [µM] | MIC (E. coli NCTC 8196 [4]) [µM] | MIC (K. aerogenes NCTC 7427 [5]) [µM] | MIC (P. aeruginosa PA01 [6]) [µM] | MIC (P. mirabilis NCTC 12442 [7]) [µM] | MIC [9] [µM] | MIC (S. aureus PIII [10]) [µM] | MBEC (B. cereus [11]) [µM] | MBEC (C. tropicalis NCTC 7393 [12]) [µM] | MBEC (E-MRSA 15 [13]) [µM] | MBEC (E. coli NCTC 8196 [14]) [µM] | MBEC (K. aerogenes NCTC 7427 [15]) [µM] | MBEC (P. aeruginosa PA01 [16]) [µM] | MBEC (P. mirabilis NCTC 12442 [17]) [µM] | MBEC (S. aureus PIII [18]) [µM] | MBEC [19] [µM] | also measured
CCCCCCCCCCCC[n+]1cccc2ccccc21.[Br-] [1-alkyl-3-quinolinium bromides 12] | 77.4 | 51.63 | 25.8 | 12.9 | 25.8 | 25.81 | 12.9 | 51.64 | 25.81 | 12.9 | 25.81 | 774.25 | 413.87 | 827.94 | 827.94 | 981.25 | 413.97 | 1655.88 | 619.5 | 413.97 | MBC (E-MRSA 15 [3]): 25.8 µM; MBC (E. coli NCTC 8196 [4]): 38.7 µM; MBC (K. aerogenes NCTC 7427 [5]): 38.7 µM; MBC (P. aeruginosa PA01 [6]): 90.33 µM; MBC (P. mirabilis NCTC 12442 [7]): 51.6 µM; MBC (S. aureus ATCC 29213): 51.6 µM; MIC (S. aureus ATCC 29213): 25.81 µM; MBC [8]: 25.8 µM; MIC [8]: 12.9 µM; MBC [9]: 25.8 µM
CCCCCCCCCCCCCC[n+]1cccc2ccccc21.[Br-] [1-alkyl-3-quinolinium bromides 14] | 29.75 | 23.95 | 3 | 3 | 5.8 | 11.6 | 5.8 | 23.95 | 5.8 | 5.8 | 5.8 | 273.32 | 68.33 | 136.66 | 136.66 | 136.66 | 136.66 | 546.64 | 91.11 | 68.33 | MBC (E-MRSA 15 [3]): 5.8 µM; MBC (E. coli NCTC 8196 [4]): 11.6 µM; MBC (K. aerogenes NCTC 7427 [5]): 11.6 µM; MBC (P. aeruginosa PA01 [6]): 23.95 µM; MBC (P. mirabilis NCTC 12442 [7]): 5.8 µM; MBC (S. aureus ATCC 29213): 5.8 µM; MIC (S. aureus ATCC 29213): 5.8 µM; MBC [8]: 5.8 µM; MIC [8]: 3 µM; MBC [9]: 5.8 µM
CCCCCCCCCCCCCCCCCC[n+]1cccc2ccccc21.[Br-] [1-alkyl-3-quinolinium bromides 18] |  | 419.52 |  | 104.88 | 209.76 | 104.88 | 104.88 | 419.52 | 104.88 | 104.88 | 209.76 | 3356.16 | 1678.08 | 1678.08 | 1678.08 | 6712.32 | 6712.32 | 3356.16 | 3356.16 | 1678.08 | 

From US20110144079A1, “ANTIMICROBIAL SYSTEM” (priority 2008, published 2011)
